{
  "source": "patent US3956495A",
  "about": "“2,4-Diaminoquinazolines as antithrombotic agents” (Eli Lilly and Company, priority 1973, dated 1976)",
  "key": {"[1]": {"tested_on": "collagen-induced aggregation (platelet)", "test": "Collagen-induced platelet aggregation inhibition, in vitro test (Table I)", "type": "cell-based", "details": "for inhibition at 41.7 µg/mL: 41.7 μg/ml; for inhibition at 167 µg/mL: 167 μg/ml; for inhibition at 10.4 µg/mL: 10.4 μg/ml", "description": "(§1) Exp. Biol. Med., 135, 100 (1970), and references cited therein."}, "[2]": {"tested_on": "platelet aggregation to collagen challenge", "test": "Platelet aggregation inhibition to collagen challenge, in vivo-in vitro test after oral administration (Table II)", "set-up": "species or system guinea pig", "details": "stock suspension 1:4, blood one hour and three hours after dosing", "experimental": "Briefly, the test procedure is as follows: blood samples are obtained from a guinea pig prior to the oral administration of the test compound. The test compound when is administered orally and blood samples withdrawn one hour and three hours after dosing. Each blood sample is treated as described in the in vitro test. The test requires one control group of six animals and six animals per compound per dose. For a more detailed description, see Herrmann et al., Proc. Soc. Exp. Biol. Med., 139, 548 (1972)."}, "[3]": {"tested_on": "ADP-induced aggregation (platelet)", "test": "ADP-induced platelet aggregation inhibition, in vitro test (Table I)", "type": "cell-based", "details": "for inhibition at 167 µg/mL: 167 μg/ml", "description": "as §1"}, "[4]": {"details": "Platelet, collagen stock suspension 1:4"}, "[5]": {"details": "Platelet, collagen stock solution 1:32"}, "[6]": {"details": "Platelet, 83.4 μg/ml, collagen stock suspension 1:4"}},
  "note": "Counter-ions that a name gives are not always drawn.",
  "data": [
    {"molecule": "2,4-bispyrrolidinylquinazoline", "values": [
      {"measurement": "% Inhibition of Aggregation, Collagen", "setting": "[1]; 2.6 μg/ml, collagen stock suspension undiluted", "result": "≥ 20", "unit": "%"},
      {"measurement": "% Inhibition of Aggregation, Collagen", "setting": "[1]; 83.4 μg/ml, collagen stock suspension 1:4", "result": "≥ 20", "unit": "%"},
      {"measurement": "% Inhibition of Aggregation to Collagen Challenge", "setting": "[2]; 12.5 mg/kg", "result": "≥ 20", "unit": "%"}
    ]},
    {"molecule": "CN(C)c1nc(N(C)C)c2ccccc2n1", "note": "[2,4-bis(dimethylamino)quinazoline]", "values": [
      {"measurement": "inhibition at 41.7 µg/mL", "setting": "[1]; [4]", "result": "≥ 20", "unit": "%"}
    ]},
    {"molecule": "Clc1ccc2nc(N3CCOCC3)nc(N3CCOCC3)c2c1", "note": "[2,4-bismorpholino-6-chloroquinazoline]", "values": [
      {"measurement": "inhibition at 167 µg/mL", "setting": "[1]; [5]", "result": 25, "unit": "%"},
      {"measurement": "inhibition at 167 µg/mL", "setting": "[3]", "result": 3, "unit": "%"}
    ]},
    {"molecule": "Cc1ccc2nc(N3CCOCC3)nc(N3CCOCC3)c2c1", "note": "[2,4-bismorpholino-6-methylquinazoline]", "values": [
      {"measurement": "inhibition at 167 µg/mL", "setting": "[1]; [5]", "result": 62, "unit": "%"},
      {"measurement": "inhibition at 167 µg/mL", "setting": "[3]", "result": 29, "unit": "%"}
    ]},
    {"molecule": "c1ccc2c(N3CCOCC3)nc(N3CCOCC3)nc2c1", "note": "[2,4-bismorpholinoquinazoline]", "values": [
      {"measurement": "inhibition at 10.4 µg/mL", "setting": "[1]; [4]", "result": 35, "unit": "%"},
      {"measurement": "inhibition at 5.2 µg/mL", "setting": "[3]; 5.2 μg/ml", "result": 51, "unit": "%"}
    ]},
    {"molecule": "Clc1ccc2nc(N3CCCCC3)nc(N3CCCCC3)c2c1", "note": "[2,4-bispiperidino-6-chloroquinazoline]", "values": [
      {"measurement": "inhibition at 167 µg/mL", "setting": "[1]; [5]", "result": 91, "unit": "%"},
      {"measurement": "inhibition at 167 µg/mL", "setting": "[3]", "result": 61, "unit": "%"}
    ]},
    {"molecule": "Cc1ccc2nc(N3CCCCC3)nc(N3CCCCC3)c2c1", "note": "[2,4-bispiperidino-6-methylquinazoline]", "values": [
      {"measurement": "inhibition at 167 µg/mL", "setting": "[1]; [5]", "result": 21, "unit": "%"},
      {"measurement": "inhibition at 167 µg/mL", "setting": "[3]", "result": 5, "unit": "%"}
    ]},
    {"molecule": "c1ccc2c(N3CCCCC3)nc(N3CCCCC3)nc2c1", "note": "[2,4-bispiperidinoquinazoline]", "values": [
      {"measurement": "inhibition at 41.7 µg/mL", "setting": "[1]; [4]", "result": "≥ 20", "unit": "%"},
      {"measurement": "inhibition at 50 mg/kg", "setting": "[2]; Cavia porcellus, Platelet, 50 mg/kg", "result": "≥ 20", "unit": "%"}
    ]},
    {"molecule": "NCCNc1nc(N2CCOCC2)c2ccccc2n1", "note": "[2-(2-aminoethylamino)-4-morpholinoquinazoline dihydrochloride]", "values": [
      {"measurement": "inhibition at 83.4 µg/mL", "setting": "[1]; [6]", "result": "≥ 20", "unit": "%"}
    ]},
    {"molecule": "CN1CCN(c2nc(N)c3ccccc3n2)CC1", "note": "[2-(4-methylpiperazinyl)-4-aminoquinazoline hydrochloride]", "values": [
      {"measurement": "inhibition at 83.4 µg/mL", "setting": "[1]; [6]", "result": "≥ 20", "unit": "%"}
    ]},
    {"molecule": "CN1CCN(c2nc(N3CCOCC3)c3ccccc3n2)CC1", "note": "[2-(4-methylpiperazinyl)-4-morpholinoquinazoline]", "values": [
      {"measurement": "inhibition at 2.6 µg/mL", "setting": "[1]; Platelet, 2.6 μg/ml, collagen stock solution 1:32", "result": 30, "unit": "%"},
      {"measurement": "inhibition at 83 µg/mL", "setting": "[3]; 83 μg/ml", "result": 44, "unit": "%"}
    ]},
    {"molecule": "c1ccc2c(NC34CC5CC(CC(C5)C3)C4)nc(N3CCOCC3)nc2c1", "note": "[2-morpholino-4-(1-adamantylamino)quinazoline hydrochloride]", "values": [
      {"measurement": "inhibition at 83.4 µg/mL", "setting": "[1]; [6]", "result": "≥ 20", "unit": "%"}
    ]},
    {"molecule": "CCN(CC)CCNc1nc(N2CCOCC2)nc2ccccc12", "note": "[2-morpholino-4-(2-diethylaminoethylamino)quinazoline hydrochloride]", "values": [
      {"measurement": "inhibition at 41.7 µg/mL", "setting": "[1]; [4]", "result": "≥ 20", "unit": "%"},
      {"measurement": "inhibition at 100 mg/kg", "setting": "[2]; Cavia porcellus, Platelet, 100 mg/kg", "result": "≥ 20", "unit": "%"}
    ]},
    {"molecule": "CN1CCN(c2nc(N3CCOCC3)nc3ccccc23)CC1", "note": "[2-morpholino-4-(4-methylpiperazinyl)quinazoline dihydrochloride, dihydrate]", "values": [
      {"measurement": "inhibition at 41.7 µg/mL", "setting": "[1]; [4]", "result": "≥ 20", "unit": "%"}
    ]},
    {"molecule": "Nc1nc(N2CCOCC2)nc2ccccc12", "note": "[2-morpholino-4-aminoquinazoline]", "values": [
      {"measurement": "inhibition at 41.7 µg/mL", "setting": "[1]; [4]", "result": "≥ 20", "unit": "%"}
    ]},
    {"molecule": "CCN(CC)c1nc(N2CCOCC2)nc2ccccc12", "note": "[2-morpholino-4-diethylaminoquinazoline, 2-morpholino-4-diethylaminoquinazoline hydrochloride]", "values": [
      {"measurement": "inhibition at 10.4 µg/mL", "setting": "[1]; [4]", "result": "≥ 20", "unit": "%"}
    ]},
    {"molecule": "CCN(CC)CCNc1nc(N2CCCC2)nc2ccccc12", "note": "[2-pyrrolidinyl-4-(2-diethylaminoethylamino)quinazoline]", "values": [
      {"measurement": "inhibition at 10.4 µg/mL", "setting": "[1]; Platelet, collagen stock suspension undiluted", "result": "≥ 20", "unit": "%"},
      {"measurement": "inhibition at 20.8 µg/mL", "setting": "[1]; Platelet, 20.8 μg/ml, collagen stock suspension 1:4", "result": "≥ 20", "unit": "%"}
    ]}
  ]
}
